What was measured:
Type in all cases: in vivo
[1] = system: Ambrosia; test: Pre-emergence test/Greenhouse, Ambrosia; details: after three weeks
Experimental: (§1) To produce a suitable preparation of the active compound, 1 part by weight of active compound is mixed with the stated amount of solvent, the stated amount of emulsifier is added and the concentrate is diluted with water to the desired concentration.
(§2) Seeds of the test plants are sown in normal soil. After about 24 hours, the soil is watered with the preparation of active compound. Advantageously, the amount of water per unit area is kept constant. The active compound concentration in the preparation is not important, only the active compound appliation rate per unit area matters.
(§3) After three weeks, the degree of damage to the plants is rated in % damage in comparison to the development of the untreated control.
(§4) 0%=no action (like untreated control)

[2] = system: Sorghum; test: Pre-emergence test/Greenhouse, Sorghum; details: after three weeks
Experimental: as §1, §2, §3, §4

[3] = system: Soya beans; test: Pre-emergence test/Greenhouse, Soya beans; details: in vivo
Experimental: as §1, §2, §3, §4

[4] = system: Matricaria; test: Pre-emergence test/Greenhouse, Matricaria; details: after three weeks
Experimental: as §1, §2, §3, §4

[5] = system: weeds; test: Pre-emergence test (greenhouse), activity against weeds; details: in words
Experimental: Solvent: 5 parts by weight of acetone
Emulsifier: 1 part by weight of alkylaryl polyglycol ether
as §1, §2, §3, §4

[6] = system: Poa; test: Pre-emergence test/Greenhouse, Poa; details: after three weeks
Experimental: as §1, §2, §3, §4

[7] = system: Lolium; test: Pre-emergence test/Greenhouse, Lolium; details: after three weeks
Experimental: as §1, §2, §3, §4

[8] = system: Solanum; test: Pre-emergence test/Greenhouse, Solanum; details: after three weeks
Experimental: as §1, §2, §3, §4

[9] = system: Maize; test: Pre-emergence test/Greenhouse, Maize; details: in vivo
Experimental: as §1, §2, §3, §4

Row | Compound | degree of damage to the plants (% damage vs untreated control), Soya beans [3] [%] | activity against weeds [5] | degree of damage to the plants (% damage vs untreated control), Ambrosia ([1]; 60 g of ai./ha) [%] | degree of damage to the plants (% damage vs untreated control), Matricaria ([4]; 60 g of ai./ha) [%] | degree of damage to the plants (% damage vs untreated control), Poa ([6]; 60 g of ai./ha) [%] | degree of damage to the plants (% damage vs untreated control), Lolium ([7]; 60 g of ai./ha) [%] | degree of damage to the plants (% damage vs untreated control), Solanum ([8]; 60 g of ai./ha) [%] | degree of damage to the plants (% damage vs untreated control), Maize [9] [%] | degree of damage to the plants (% damage vs untreated control), Sorghum ([2]; 125 g of ai./ha) [%] | degree of damage to the plants (% damage vs untreated control), Matricaria ([4]; 125 g of ai./ha) [%] | degree of damage to the plants (% damage vs untreated control), Lolium ([7]; 125 g of ai./ha) [%] | degree of damage to the plants (% damage vs untreated control), Solanum ([8]; 125 g of ai./ha) [%] | further results
1 | COc1nn(C(=O)NS(=O)(=O)c2c(C)cccc2C(=O)OC(C)C)c(=O)n1C [Example 16] | 0 | very strong activity against weeds |  |  |  |  |  |  |  |  |  |  | degree of damage to the plants (% damage vs untreated control), Ambrosia ([1]; 30 g of ai./ha): 95%; degree of damage to the plants (% damage vs untreated control), Sorghum ([2]; 30 g of ai./ha): 90%; degree of damage to the plants (% damage vs untreated control), Matricaria ([4]; 30 g of ai./ha): 95%; degree of damage to the plants (% damage vs untreated control), Poa ([6]; 30 g of ai./ha): 95%; degree of damage to the plants (% damage vs untreated control), Lolium ([7]; 30 g of ai./ha): 95%; degree of damage to the plants (% damage vs untreated control), Solanum ([8]; 30 g of ai./ha): 95%
2 | CCCOc1nn(C(=O)NS(=O)(=O)c2c(C)cccc2C(=O)OC(C)C)c(=O)n1C [Example 17] | 0 | very strong activity against weeds |  |  |  |  |  |  |  |  |  |  | degree of damage to the plants (% damage vs untreated control), Ambrosia ([1]; 30 g of ai./ha): 95%; degree of damage to the plants (% damage vs untreated control), Sorghum ([2]; 30 g of ai./ha): 60%; degree of damage to the plants (% damage vs untreated control), Matricaria ([4]; 30 g of ai./ha): 95%; degree of damage to the plants (% damage vs untreated control), Poa ([6]; 30 g of ai./ha): 95%; degree of damage to the plants (% damage vs untreated control), Lolium ([7]; 30 g of ai./ha): 80%; degree of damage to the plants (% damage vs untreated control), Solanum ([8]; 30 g of ai./ha): 95%
3 | CCOc1nn(C(=O)NS(=O)(=O)c2c(C)cccc2C(=O)OC(C)C)c(=O)n1CC [Example 43] | 10 | very strong activity against weeds | 95 | 95 | 95 | 95 | 95 |  |  |  |  |  | degree of damage to the plants (% damage vs untreated control), Sorghum ([2]; 60 g of ai./ha): 80%
4 | CCOC(=O)c1scc(C)c1S(=O)(=O)NC(=O)n1nc(OCC)n(CC)c1=O [Example 64] | 30 | very strong activity against weeds | 100 | 100 | 60 | 90 | 100 | 10 |  |  |  |  | 
5 | CCOc1nn(C(=O)NS(=O)(=O)c2c(C)csc2C(=O)OC(C)C)c(=O)n1C [Example 76] | 30 | very strong activity against weeds |  | 100 |  | 95 | 95 | 0 |  |  |  |  | degree of damage to the plants (% damage vs untreated control), Sorghum ([2]; 60 g of ai./ha): 95%
6 | Cc1csc(C(=O)OC(C)C)c1S(=O)(=O)NC(=O)n1nc(OC(C)C)n(C)c1=O [Example 84] | 30 | very strong activity against weeds |  |  |  |  |  | 5 | 90 | 95 | 95 | 100 | 
7 | CCOc1nn(C(=O)NS(=O)(=O)c2c(C)csc2C(=O)OC(C)C)c(=O)n1CC [Example 86] | 40 | very strong activity against weeds |  |  |  |  |  | 10 | 70 | 100 | 80 | 95 | 
8 | COC(=O)c1cccc(OC)c1S(=O)(=O)NC(=O)n1nc(OC(C)C)n(C2CC2)c1=O [Example 135] | 40 | very strong activity against weeds |  |  |  |  |  |  | 90 | 90 | 95 | 95 | degree of damage to the plants (% damage vs untreated control), Ambrosia ([1]; 125 g of ai./ha): 90%; degree of damage to the plants (% damage vs untreated control), Poa ([6]; 125 g of ai./ha): 95%
9 | COC(=O)c1cccc(C)c1S(=O)(=O)NC(=O)n1nc(OCC(F)(F)F)n(C2CC2)c1=O [Example 142] | 10 | very strong activity against weeds |  |  |  |  |  | 20 |  |  |  |  | degree of damage to the plants (% damage vs untreated control), Ambrosia ([1]; 15 g of ai./ha): 80%; degree of damage to the plants (% damage vs untreated control), Matricaria ([4]; 15 g of ai./ha): 80%; degree of damage to the plants (% damage vs untreated control), Poa ([6]; 15 g of ai./ha): 80%; degree of damage to the plants (% damage vs untreated control), Lolium ([7]; 15 g of ai./ha): 95%; degree of damage to the plants (% damage vs untreated control), Solanum ([8]; 15 g of ai./ha): 80%
10 | CCOn1c(SC)nn(C(=O)NS(=O)(=O)c2c(C)cccc2C(=O)OC)c1=O [Example 146] | 10 | very strong activity against weeds | 80 | 80 | 90 | 80 | 90 | 0 |  |  |  |  | 
11 | C=CCOc1nn(C(=O)NS(=O)(=O)c2c(C)cccc2C(=O)OC)c(=O)n1C1CC1 [Example 147] | 0 | very strong activity against weeds |  |  |  |  |  | 30 |  |  |  |  | degree of damage to the plants (% damage vs untreated control), Ambrosia ([1]; 15 g of ai./ha): 70%; degree of damage to the plants (% damage vs untreated control), Matricaria ([4]; 15 g of ai./ha): 70%; degree of damage to the plants (% damage vs untreated control), Poa ([6]; 15 g of ai./ha): 90%; degree of damage to the plants (% damage vs untreated control), Lolium ([7]; 15 g of ai./ha): 95%; degree of damage to the plants (% damage vs untreated control), Solanum ([8]; 15 g of ai./ha): 80%
12 | COC(=O)c1cccc(C)c1S(=O)(=O)NC(=O)n1nc(SCC(F)(F)F)n(C)c1=O [Example 150] | 10 | very strong activity against weeds |  |  |  |  |  |  | 80 | 80 | 80 | 80 | degree of damage to the plants (% damage vs untreated control), Ambrosia ([1]; 125 g of ai./ha): 70%; degree of damage to the plants (% damage vs untreated control), Poa ([6]; 125 g of ai./ha): 90%
13 | COC(=O)c1cccc(C)c1S(=O)(=O)NC(=O)n1nc(SCCF)n(C)c1=O [Example 152] | 20 | very strong activity against weeds |  |  |  |  |  |  | 95 | 80 | 95 | 95 | degree of damage to the plants (% damage vs untreated control), Ambrosia ([1]; 125 g of ai./ha): 95%; degree of damage to the plants (% damage vs untreated control), Poa ([6]; 125 g of ai./ha): 95%
14 | CCOn1c(CC)nn(C(=O)NS(=O)(=O)c2c(C)cccc2C(=O)OC)c1=O [Example 155] | 40 | very strong activity against weeds | 90 | 80 | 95 | 95 | 95 |  |  |  |  |  | degree of damage to the plants (% damage vs untreated control), Sorghum ([2]; 60 g of ai./ha): 95%
15 | C#CCSc1nn(C(=O)NS(=O)(=O)c2c(C)cccc2C(=O)OC)c(=O)n1C [Example 161] | 20 | very strong activity against weeds | 95 | 95 | 95 | 95 | 95 | 0 |  |  |  |  | 
16 | COC(=O)c1cccc(C)c1S(=O)(=O)NC(=O)n1nc(OCC2CC2)n(C)c1=O [Example 167] | 30 | very strong activity against weeds | 90 | 95 | 95 | 80 | 90 |  |  |  |  |  | degree of damage to the plants (% damage vs untreated control), Sorghum ([2]; 60 g of ai./ha): 95%
17 | COC(=O)c1cccc(C)c1S(=O)(=O)NC(=O)n1nc(OCC2CC2)n(C2CC2)c1=O [Example 172] | 60 | very strong activity against weeds |  |  |  |  |  |  | 90 | 95 | 90 | 95 | degree of damage to the plants (% damage vs untreated control), Ambrosia ([1]; 125 g of ai./ha): 90%; degree of damage to the plants (% damage vs untreated control), Poa ([6]; 125 g of ai./ha): 95%
